# Results reported in patent US20150025120A1, “PYRAZOLE-ALCOHOL COMPOUNDS AND PHARMACEUTICAL USE THEREOF” (JAPAN TOBACCO INC., priority 2013, published 2015).
# Tests used:
# [1] = Metabolic stability test in liver microsome (human); type: in vitro ADME; conditions: 5 μM test compound
# Protocol: Human liver microsome (manufactured by Xenotech, H0620, final concentration (after dilution), 0.2 mg protein/mL) was suspended in 100 mM potassium phosphate buffer (pH 7.4, containing β-nicotinamide adenine dinucleotide phosphate: 1.3 mM, D-glucose-6-phosphate: 3.3 mM, magnesium chloride: 3.3 mM, glucose-6-phosphate dehydrogenase: 0.45 U/mL), and further mixed with a test compound dissolved in MeCN/DMSO (95/5) (final concentration 5 μM). The mixture was incubated at 37° C. for 10 min and 60 min, acetonitrile containing formic acid (final concentration 0.1%) was added, and the mixture was centrifuged. The test compound (unmodified) in the supernatant was measured by high performance liquid chromatography/mass spectrometry (LC/MS) (manufactured by Waters, LC: Acquity UPLC, MS:SQ Detector or TQ Detector). The residual ratio (%) was calculated from the obtained measurement value.
# [2] = molecular target: T1, hERG current (hERG-transfected HEK293 cells) (Homo sapiens, UniProt Q12809); test: hERG whole cell patch clamp test; type: cell-based; conditions: for IC50: whole cell patch clamp, hERG-transfected HEK293 cells
# T1 construct: host or cells: HEK293
# Protocol: Using human ether-a-go-go related gene (hERG)-transfected HEK293 cells (Cytomyx Limited), an influence on hERG current was examined according to the whole cell patch clamp technique. The hERG-transfected HEK293 cells were passaged using a CO2 incubator (BNA-111, TABAI ESPEC CORP.) under the set conditions of 37° C., 5% CO2, saturated humidity. Culture containers used were Collagen Type I Coated 75 cm^2 flask (4123-010, AGC TECHNO GLASS CO., Ltd.) and Collagen Type I Coated 35 mm culture dish (4000-010, AGC TECHNO GLASS CO., Ltd.). The culture medium used was E-MEM (Eagle Minimum Essential Medium (Earle's Salts, Nikken biomedical laboratory) added with 10% FCS (Fetal calf serum, BioWest, L.L.C.) and 1% MEM Non-Essential Amino Acids Solution (NEAA, Invitrogen Corporation). Geneticin for the selection of hERG gene expressing cells was added thereto to a concentration of 400 μg/mL. As the cells for the measurement, 3×10^4 hERG-transfected HEK293 cells were plated on a 35 mm culture dish 4 to 7 days before measurement of the hERG current. The culture dish produced for the measurement contained the above-mentioned culture medium without geneticin (Invitrogen Corporation).
# The highest evaluation concentration of each compound was determined from the highest concentration at which precipitation was not found in the standard extracellular fluid (NaCl: 140 mmol/L, KCl: 2.5 mmol/L, MgCl2: 2 mmol/L, CaCl2: 2 mmol/L, HEPES: 10 mmol/L, glucose: 10 mmol/L (adjusted to pH 7.4 with Tris-base)). As the application method, each solution to be applied was ejected from a Y-tube having a tip diameter of about 0.25 mm, which was adjacent (about 2 mm) to the cells, and applied to the cells. The ejection rate was about 0.4 mL/min.
# The experiment was performed at room temperature under a phase contrast microscope. The 35 mm culture dish plated with the cells was set on a measurement apparatus, and the standard extracellular fluid was continuously applied to the cells from the Y-tube. A glass electrode for the measurement was filled with an intracellular fluid (Potassium Gluconate: 130 mmol/L, KCl: 20 mmol/L, MgCl2: 1 mmol/L, ATP-Mg: 5 mmol/L, EGTA: 3.5 mmol/L, HEPES: 10 mmol/L (adjusted to pH 7.2 with Tris-base)). A conventional whole cell patch clamp method was applied to the cells, and the maintenance electric potential was set to −80 mV. Under a fixed electric potential, the whole cell current was amplified by an amplifier for patch clamp (AXOPATCH-200B, Axon Instruments, Inc.), and the data was loaded into a computer (IMC-P642400, Intermedical Co., Ltd.) using a data acquisition analysis software (pCLAMP 9.2, Axon Instruments, Inc.).
# The measurement of the hERG current was performed in the following two steps. In both cases, the hERG current was initiated by giving a command potential (maintenance electric potential −80 mV, prepulse+20 mV, 1.5 sec, test-pulse −50 mV, 1.5 sec).
# Step (1): The above-mentioned command potential was given at 0.1 Hz for 2 min.
# Step (2): The above-mentioned command potential was subjected to P/3 subtraction of pCLAMP 9.2 to remove leak current. This was repeated three times and an average thereof was taken as hERG current.
# Subsequent to step (1), Step (2) was performed (about 3 min), and the maximum tail current obtained by applying a test-pulse to the hERG current obtained by the method of step (2) was taken as hERG current value. Hereafter, the operations of (1) and (2) were alternately repeated until completion of the experiment and the hERG current value was measured.
# Stable hERG current value was recorded three times (about 10 min), and the standard extracellular fluid was instantaneously exchanged with each application fluid. The hERG current value was measured three times (about 10 min) in the same manner during perfusion of the application fluid, and the current value obtained by the 3rd measurement was taken as hERG current value after perfusion of the application fluid. […]
# [3] = Metabolic stability test in liver microsome (rat); type: in vitro ADME
# T1 sequence (Q12809 whole entry): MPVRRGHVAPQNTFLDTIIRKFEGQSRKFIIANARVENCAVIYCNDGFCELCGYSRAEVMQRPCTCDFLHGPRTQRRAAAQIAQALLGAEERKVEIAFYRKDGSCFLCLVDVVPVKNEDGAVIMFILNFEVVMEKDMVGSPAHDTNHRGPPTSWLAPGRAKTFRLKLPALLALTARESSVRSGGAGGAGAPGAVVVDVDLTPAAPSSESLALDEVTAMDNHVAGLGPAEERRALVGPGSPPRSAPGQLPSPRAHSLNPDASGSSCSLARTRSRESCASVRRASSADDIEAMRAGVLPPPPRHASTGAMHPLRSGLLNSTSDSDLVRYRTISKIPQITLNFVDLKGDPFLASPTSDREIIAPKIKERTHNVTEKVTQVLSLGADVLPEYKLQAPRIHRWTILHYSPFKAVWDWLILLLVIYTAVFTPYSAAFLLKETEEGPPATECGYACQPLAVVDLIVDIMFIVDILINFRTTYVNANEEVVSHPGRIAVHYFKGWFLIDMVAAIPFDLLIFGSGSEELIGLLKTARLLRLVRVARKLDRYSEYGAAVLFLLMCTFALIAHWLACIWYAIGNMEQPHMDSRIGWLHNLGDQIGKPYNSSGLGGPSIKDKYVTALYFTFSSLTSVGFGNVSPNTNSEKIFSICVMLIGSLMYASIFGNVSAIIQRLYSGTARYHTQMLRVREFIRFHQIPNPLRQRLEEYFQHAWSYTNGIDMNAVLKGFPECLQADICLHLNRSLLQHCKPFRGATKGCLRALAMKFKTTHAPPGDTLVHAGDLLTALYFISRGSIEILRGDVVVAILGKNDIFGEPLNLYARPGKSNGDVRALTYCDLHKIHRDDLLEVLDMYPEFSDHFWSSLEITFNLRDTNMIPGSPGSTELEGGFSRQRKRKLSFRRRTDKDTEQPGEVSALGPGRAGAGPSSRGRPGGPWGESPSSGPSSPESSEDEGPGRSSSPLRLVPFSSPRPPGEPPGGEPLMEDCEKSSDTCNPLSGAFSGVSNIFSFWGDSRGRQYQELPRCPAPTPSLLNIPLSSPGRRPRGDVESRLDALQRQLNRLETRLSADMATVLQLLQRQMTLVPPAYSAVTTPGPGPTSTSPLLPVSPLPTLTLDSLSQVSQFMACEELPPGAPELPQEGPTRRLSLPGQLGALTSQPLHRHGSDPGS
SMILES,stability in liver microsome (residual ratio %) ([1]; 10 min),stability in liver microsome (residual ratio %) ([1]; 60 min),hERG inhibition rate (%) ([2]; concentration 10 μmol/L),hERG inhibition rate (%) ([2]; concentration 100 μmol/L),IC50 [2],stability in liver microsome (residual ratio %) ([3]; 10 min),stability in liver microsome (residual ratio %) ([3]; 60 min),hERG inhibition rate (%) ([2]; concentration 30 μmol/L),hERG inhibition rate (%) ([2]; concentration 1 μmol/L)
"C[C@H](O)COc1cc(-c2cnn(CC(C)(C)O)c2)c2c(c1)[C@@](O)(C(F)(F)F)c1ccccc1-2 [compound (1), (9R)-4-[1-(2-hydroxy-2-methylpropyl)-1H-pyrazol-4-yl]-2-((2S)-2-hydroxypropoxy)-9-(trifluoromethyl)-9H-fluoren-9-ol]",102.1%,87.8%,16.2%,62.3%,54.4 µM,102.0%,95.4%,–,–
"CC(C)(O)COc1cc(-c2cnn(CC(C)(C)O)c2)c2c(c1)[C@@](O)(C(F)(F)F)c1ccccc1-2 [compound (2), (9R)-2-(2-hydroxy-2-methylpropoxy)-4-[1-(2-hydroxy-2-methylpropyl)-1H-pyrazol-4-yl]-9-(trifluoromethyl)-9H-fluoren-9-ol]",94.9%,87.9%,13.2%,67.6%,47.6 µM,95.1%,93.6%,–,–
"CC(C)(O)CCCOc1cc(-c2cnn(CC(C)(C)O)c2)c2c(c1)[C@@](O)(C(F)(F)F)c1ccccc1-2 [compound (4), (9R)-2-(4-hydroxy-4-methylpentyloxy)-4-[1-(2-hydroxy-2-methylpropyl)-1H-pyrazol-4-yl]-9-(trifluoromethyl)-9H-fluoren-9-ol]",98.8%,78.9%,18.6%,–,> 30 µM,98.9%,93.5%,44.0%,–
"NC(=O)Cn1cc(-c2cc(OCCC34CC5CC(CC(O)(C5)C3)C4)cc3c2-c2ccccc2[C@]3(O)C(F)(F)F)cn1 [compound (A), 2-(4-{(9R)-9-Hydroxy-2-[2-(3-hydroxyadamantan-1-yl)ethoxy]-9-(trifluoromethyl)-9H-fluoren-4-yl}-1H-pyrazol-1-yl)acetamide, reference compound]",34.8%,0.0%,11.8%,–,–,24.8%,0.0%,–,–
"Cn1cc(-c2cc(OCC(C)(C)O)cc3c2-c2ccccc2[C@]3(O)C(F)(F)F)cn1 [compound (B), (9R)-2-(2-Hydroxy-2-methylpropoxy)-4-(1-methyl-1H-pyrazol-4-yl)-9-(trifluoromethyl)-9H-fluoren-9-ol, reference compound]",98.0%,88.2%,72.9%,–,–,101.1%,92.1%,–,17.4%
